According to patent US8192962B2, “Processes for detecting toxic substances” (Daikin Industries, Ltd., priority 2001, dated 2012):

Tested on: Unknown protein yeast genes
Assay: DNA chip mRNA expression in yeast, unknown protein yeast genes (Table 1)
Assay type: cell-based, Saccharomyces cerevisiae S288C
Procedure: Yeast (Saccharomyces cerevisiae S288C (α SUC2mal mel gap2 CUP1)) were incubated at 25° C. on YPD medium (yeast extract 1%, polypepton 2%, glucose 2%). One of toxic chemical substances was added to the cells at logarithmic growth phase, and the cells were further incubated for two hours. Cells were cultured without any chemical substance in the same condition, and were used as control. Concentrations of the chemical substances were defined to inhibit the growth of the yeast but not lead to death.
After completion of the incubation, the culture was centrifuged to collect the cells. To the cells, sodium acetate buffer (50 mM sodium acetate, 10 mM EDTA, 1% SDS) was added, and the mixture was shaken at 65° C. for five minutes, followed by returning to room temperature, and obtaining the supernatant, of which the procedures were repeated two times. To the supernatant, ½ amount of a solution of phenol/chloroform was added, and the mixture was centrifuged to give a supernatant, which was added with an equal amount of chloroform, and the mixture was centrifuged to give a supernatant. To the supernatant, an equal amount of isopropanol containing 0.3 M sodium acetate was added, and the mixture was allowed to stand at room temperature for 30 minutes, after which the mixture was centrifuged to give a sediment of the whole RNAs. Seventy % ethanol was added to the sediment, and the mixture was again centrifuged to give a sediment, which was then dried and dissolved in water. mRNA was isolated from the whole RNAs as followings. In view of the fact that a poly A chain is attached to the 3′ terminus of mRNA, a polynucleotide having a poly T structure which was immobilized on the surface of latex beads was used to trap the mRNA, and then the mRNA was washed and eluted with spine column (Oligotex-dT30<Super>mRNA Purification Kit, Takara). Reverse transcription of the mRNA was conducted with a reverse transcriptase (Super Script II Reverse Transcriptase; catalogue No. 18064-014, GibcoBRL) using fluorescence-labeled nucleotides to give cDNAs that were introduced with Cy3-dUTP or Cy5-dUTP during the reverse transcription.
The labeled cDNAs were dissolved in TE buffer (10mM Tris-HCl/1 mM EDTA, pH8.0), and the solution was dropped on the DNA chip containing the whole genes of yeast (DNA Chip Research Inc. Japan) so that the cDNAs were hybridized on the DNA chip at 65° C. for over 12 hours. The fluoresces intensity of the DNA chip was read with a scanner, and the ratio relative to the fluorescence intensity resulting from the absence of chemical substance was estimated as the following, which is shown in Tables 1 to 9: […]

## [Cl][Cd][Cl] [(2), CdCl2]
Yeast gene YAL053W, incubated two hours with chemical substance
  The level of expressed mRNA in the presence of chemical substance/The level of expressed mRNA in the absence of chemical substance: 0.9
Yeast gene YBL048W
  The level of expressed mRNA in the presence of chemical substance/The level of expressed mRNA in the absence of chemical substance: 7.9
Yeast gene YBL107C
  The level of expressed mRNA in the presence of chemical substance/The level of expressed mRNA in the absence of chemical substance: 1.1
Yeast gene YDL072C, incubated two hours with chemical substance
  The level of expressed mRNA in the presence of chemical substance/The level of expressed mRNA in the absence of chemical substance: 1.1
Yeast gene YDL204W, incubated two hours with chemical substance
  The level of expressed mRNA in the presence of chemical substance/The level of expressed mRNA in the absence of chemical substance: 1.9
Yeast gene YDL222C, incubated two hours with chemical substance
  The level of expressed mRNA in the presence of chemical substance/The level of expressed mRNA in the absence of chemical substance: 1.1
Yeast gene YDR330W, incubated two hours with chemical substance
  The level of expressed mRNA in the presence of chemical substance/The level of expressed mRNA in the absence of chemical substance: 1.5
Yeast gene YDR411C, incubated two hours with chemical substance
  The level of expressed mRNA in the presence of chemical substance/The level of expressed mRNA in the absence of chemical substance: 2.8
Yeast gene YDR511W, incubated two hours with chemical substance
  The level of expressed mRNA in the presence of chemical substance/The level of expressed mRNA in the absence of chemical substance: 1.7
Yeast gene YDR545W, incubated two hours with chemical substance
  The level of expressed mRNA in the presence of chemical substance/The level of expressed mRNA in the absence of chemical substance: 1.2
Yeast gene YEL001C, incubated two hours with chemical substance
  The level of expressed mRNA in the presence of chemical substance/The level of expressed mRNA in the absence of chemical substance: 1.0
Yeast gene YER004W, incubated two hours with chemical substance
  The level of expressed mRNA in the presence of chemical substance/The level of expressed mRNA in the absence of chemical substance: 1.5
Yeast gene YER035W, incubated two hours with chemical substance
  The level of expressed mRNA in the presence of chemical substance/The level of expressed mRNA in the absence of chemical substance: 1.6
Yeast gene YER079W, incubated two hours with chemical substance
  The level of expressed mRNA in the presence of chemical substance/The level of expressed mRNA in the absence of chemical substance: 1.6
Yeast gene YER106W, incubated two hours with chemical substance
  The level of expressed mRNA in the presence of chemical substance/The level of expressed mRNA in the absence of chemical substance: 0.7
Yeast gene YER158C, incubated two hours with chemical substance
  The level of expressed mRNA in the presence of chemical substance/The level of expressed mRNA in the absence of chemical substance: 0.9
Yeast gene YER163C, incubated two hours with chemical substance
  The level of expressed mRNA in the presence of chemical substance/The level of expressed mRNA in the absence of chemical substance: 2.4
Yeast gene YER175C, incubated two hours with chemical substance
  The level of expressed mRNA in the presence of chemical substance/The level of expressed mRNA in the absence of chemical substance: 1.2
Yeast gene YFL006W, incubated two hours with chemical substance
  The level of expressed mRNA in the presence of chemical substance/The level of expressed mRNA in the absence of chemical substance: 2.8
Yeast gene YFL010C, incubated two hours with chemical substance
  The level of expressed mRNA in the presence of chemical substance/The level of expressed mRNA in the absence of chemical substance: 4.8
Yeast gene YFL024C
  The level of expressed mRNA in the presence of chemical substance/The level of expressed mRNA in the absence of chemical substance: 1.1
Yeast gene YFL032W, incubated two hours with chemical substance
  The level of expressed mRNA in the presence of chemical substance/The level of expressed mRNA in the absence of chemical substance: 1.5
Yeast gene YGL037C, incubated two hours with chemical substance
  The level of expressed mRNA in the presence of chemical substance/The level of expressed mRNA in the absence of chemical substance: 2.7
Yeast gene YGL047W, incubated two hours with chemical substance
  The level of expressed mRNA in the presence of chemical substance/The level of expressed mRNA in the absence of chemical substance: 1.9
Yeast gene YGL053W, incubated two hours with chemical substance
  The level of expressed mRNA in the presence of chemical substance/The level of expressed mRNA in the absence of chemical substance: 1.5
Yeast gene YGL121C
  The level of expressed mRNA in the presence of chemical substance/The level of expressed mRNA in the absence of chemical substance: 5.0
Yeast gene YGL199C, incubated two hours with chemical substance
  The level of expressed mRNA in the presence of chemical substance/The level of expressed mRNA in the absence of chemical substance: 1.7
Yeast gene YGR101W, incubated two hours with chemical substance
  The level of expressed mRNA in the presence of chemical substance/The level of expressed mRNA in the absence of chemical substance: 1.3
Yeast gene YGR110W
  The level of expressed mRNA in the presence of chemical substance/The level of expressed mRNA in the absence of chemical substance: 3.1
Yeast gene YGR130C, incubated two hours with chemical substance
  The level of expressed mRNA in the presence of chemical substance/The level of expressed mRNA in the absence of chemical substance: 0.7
Yeast gene YGR154C, incubated two hours with chemical substance
  The level of expressed mRNA in the presence of chemical substance/The level of expressed mRNA in the absence of chemical substance: 2.9
Yeast gene YGR221C, incubated two hours with chemical substance
  The level of expressed mRNA in the presence of chemical substance/The level of expressed mRNA in the absence of chemical substance: 2.2
Yeast gene YHR138C, incubated two hours with chemical substance
  The level of expressed mRNA in the presence of chemical substance/The level of expressed mRNA in the absence of chemical substance: 1.8
Yeast gene YHR199C, incubated two hours with chemical substance
  The level of expressed mRNA in the presence of chemical substance/The level of expressed mRNA in the absence of chemical substance: 2.0
Yeast gene YIL023C, incubated two hours with chemical substance
  The level of expressed mRNA in the presence of chemical substance/The level of expressed mRNA in the absence of chemical substance: 1.2
Yeast gene YIL041W, incubated two hours with chemical substance
  The level of expressed mRNA in the presence of chemical substance/The level of expressed mRNA in the absence of chemical substance: 1.2
Yeast gene YIL087C, incubated two hours with chemical substance
  The level of expressed mRNA in the presence of chemical substance/The level of expressed mRNA in the absence of chemical substance: 1.9
Yeast gene YJL057C, incubated two hours with chemical substance
  The level of expressed mRNA in the presence of chemical substance/The level of expressed mRNA in the absence of chemical substance: 1.2
Yeast gene YJL066C, incubated two hours with chemical substance
  The level of expressed mRNA in the presence of chemical substance/The level of expressed mRNA in the absence of chemical substance: 1.2
Yeast gene YJL082W, incubated two hours with chemical substance
  The level of expressed mRNA in the presence of chemical substance/The level of expressed mRNA in the absence of chemical substance: 0.8
Yeast gene YJL151C, incubated two hours with chemical substance
  The level of expressed mRNA in the presence of chemical substance/The level of expressed mRNA in the absence of chemical substance: 2.4
Yeast gene YJL152W, incubated two hours with chemical substance
  The level of expressed mRNA in the presence of chemical substance/The level of expressed mRNA in the absence of chemical substance: 1.5
Yeast gene YJL161W, incubated two hours with chemical substance
  The level of expressed mRNA in the presence of chemical substance/The level of expressed mRNA in the absence of chemical substance: 2.2
Yeast gene YJL171C, incubated two hours with chemical substance
  The level of expressed mRNA in the presence of chemical substance/The level of expressed mRNA in the absence of chemical substance: 0.7
Yeast gene YJR008W, incubated two hours with chemical substance
  The level of expressed mRNA in the presence of chemical substance/The level of expressed mRNA in the absence of chemical substance: 1.5
Yeast gene YJR054W, incubated two hours with chemical substance
  The level of expressed mRNA in the presence of chemical substance/The level of expressed mRNA in the absence of chemical substance: 0.9
Yeast gene YKL071W
  The level of expressed mRNA in the presence of chemical substance/The level of expressed mRNA in the absence of chemical substance: 3.8
Yeast gene YKL086W, incubated two hours with chemical substance
  The level of expressed mRNA in the presence of chemical substance/The level of expressed mRNA in the absence of chemical substance: 1.1
Yeast gene YKL151C, incubated two hours with chemical substance
  The level of expressed mRNA in the presence of chemical substance/The level of expressed mRNA in the absence of chemical substance: 3.1
Yeast gene YKL153W, incubated two hours with chemical substance
  The level of expressed mRNA in the presence of chemical substance/The level of expressed mRNA in the absence of chemical substance: 1.4
